Measured values from patent publication US9650395B2, “Antibacterial compounds and methods for use” (PTC Therapeutics, Inc., priority 2011, dated 2017).
Converted amounts (≈) assume the structure as drawn. Where two headings read alike, the source gives them in different places.

Legend:
[1] = tested on: super sensitive Gram-negative Escherichia coli (E. coli) BAS849; assay: Antibacterial activity, microbroth dilution MIC, E. coli BAS849; type: cell-based; settings: Escherichia coli, read-out: MIC, BAS849
[2] = tested on: control Gram-negative E. coli 25922 strain; assay: Antibacterial activity, microbroth dilution MIC, E. coli 25922; type: cell-based, Escherichia coli; settings: Escherichia coli; E. coli 25922, microbroth dilution; read-out: MIC, 25922
[3] = tested on: Gram-positive Staphylococcus aureus (S. aureus) 29213; assay: Antibacterial activity, microbroth dilution MIC, S. aureus 29213; type: cell-based; settings: Staphylococcus aureus; S. aureus 29213, microbroth dilution; read-out: MIC, 29213
[4] = tested on: quinolone resistant E. coli LZ3111; assay: Antibacterial activity, MIC, quinolone resistant E. coli LZ3111; type: cell-based, Escherichia coli; settings: Escherichia coli, read-out: MIC, LZ3111
Description: (§1) The antibacterial activity from a microbroth dilution method may be presented as the minimum inhibitory concentration (MIC in […]). The MIC value is the lowest concentration of a drug which prevents macroscopically visible bacterial growth under test conditions.
Mutations in these regions are known to confer a high level resistance to the quinolone class of antibiotics.

[5] = tested on: E. coli ELZ4000 (MDR clinical isolate); assay: Antibacterial activity, MIC, MDR E. coli ELZ4000; type: cell-based, Escherichia coli; settings: Escherichia coli; E. coli ELZ4000, MDR clinical isolate; read-out: MIC ELZ4000
[6] = tested on: E. coli ELZ4251 (MDR clinical isolate); assay: Antibacterial activity, MIC, MDR E. coli ELZ4251; type: cell-based, Escherichia coli; settings: Escherichia coli, E. coli ELZ4251, MDR clinical isolate; read-out: MIC ELZ4251
[7] = tested on: Pseudomonas aeruginosa (P. aeruginosa) 27853; assay: Antibacterial activity, MIC, P. aeruginosa 27853; type: cell-based; settings: Pseudomonas aeruginosa, P. aeruginosa 27853; read-out: MIC 27853
Description: as §1
Antibacterial activity of test compounds against the Gram-negative bacterium Pseudomonas aeruginosa (P. aeruginosa) 27853 is shown in Table 5.

[8] = tested on: Haemophilus influenzae (H. influenzae) 49247; assay: Antibacterial activity, MIC, H. influenzae 49247; type: cell-based; settings: Haemophilus influenzae; H. influenzae 49247; read-out: MIC 49247
Description: as §1
Antibacterial activity of test compounds against the Gram-negative bacteria Haemophilus influenzae (H. influenzae) 49247, Moraxella catarrhalis (M. catarrhalis) 25238 and Neisseria meningitidis (N. meningitidis) 13090 is shown in Table 6.

[9] = tested on: Moraxella catarrhalis (M. catarrhalis) 25238; assay: Antibacterial activity, MIC, M. catarrhalis 25238; type: cell-based; settings: Moraxella catarrhalis, M. catarrhalis 25238; read-out: MIC 25238
[10] = tested on: Neisseria meningitidis (N. meningitidis) 13090; assay: Antibacterial activity, MIC, N. meningitidis 13090; type: cell-based; settings: Neisseria meningitidis; N. meningitidis 13090; read-out: MIC 13090
[11] = E. coli BAS849, microbroth dilution

Structure (SMILES) | MIC [1, 11] | MIC [2] | MIC [3] | MIC [4] | MIC [5] | MIC [6] | MIC [7] | MIC [8] | MIC [9] | MIC [10] | MIC [1]
CCc1cc(C(=O)O)c(=O)[nH]c1-c1ccc(N2CCC(F)(F)C2)cc1 [Cpd 144, 6-[4-(3,3-difluoropyrrolidin-1-yl)phenyl]-5-ethyl-2-oxo-1,2-dihydropyridine-3-carboxylic acid] | < 1 µg/mL | 1 to 3.5 µg/mL (≈ 2.87 to 10 µM) | 3.5 to 12.5 µg/mL (≈ 10 to 35.9 µM) | 12.5 to 150 µg/mL (≈ 35.9 to 431 µM) | 12.5 to 150 µg/mL (≈ 35.9 to 431 µM) | 12.5 to 150 µg/mL (≈ 35.9 to 431 µM) | 12.5 to 150 µg/mL (≈ 35.9 to 431 µM) | < 1 µg/mL | < 1 µg/mL | < 1 µg/mL | 
CCc1cc(C(=O)O)c(=O)[nH]c1-c1ccc(N2CC[C@@H](N(C)C)C2)cc1.O=C(O)C(F)(F)F [Cpd 150, 6-{4-[(3R)-3-(dimethylamino)pyrrolidin-1-yl]phenyl}-5-ethyl-2-oxo-1,2-dihydropyridine-3-carboxylic acid trifluoroacetate] |  | 1 to 3.5 µg/mL | 12.5 to 150 µg/mL | 12.5 to 150 µg/mL | 12.5 to 150 µg/mL | 12.5 to 150 µg/mL | 12.5 to 150 µg/mL | < 1 µg/mL | < 1 µg/mL | < 1 µg/mL | < 1 µg/mL
CCc1cc(C(=O)O)c(=O)[nH]c1-c1ccc(N2CC(O)C2)cc1 [Cpd 121, 5-ethyl-6-[4-(3-hydroxyazetidin-1-yl)phenyl]-2-oxo-1,2-dihydropyridine-3-carboxylic acid] | < 1 µg/mL | 3.5 to 12.5 µg/mL (≈ 11.1 to 39.8 µM) | 12.5 to 150 µg/mL (≈ 39.8 to 477 µM) | 12.5 to 150 µg/mL (≈ 39.8 to 477 µM) | 12.5 to 150 µg/mL (≈ 39.8 to 477 µM) | 12.5 to 150 µg/mL (≈ 39.8 to 477 µM) |  | < 1 µg/mL | < 1 µg/mL | < 1 µg/mL | 
CCc1c(-c2ccc(N3C[C@@H](O)[C@@H](O)C3)cc2)[nH]c(=O)c(C(=O)O)c1O [Cpd 304, 6-{4-[(3R,4S)-3,4-dihydroxypyrrolidin-1-yl]phenyl}-5-ethyl-4-hydroxy-2-oxo-1,2-dihydropyridine-3-carboxylic acid] | < 1 µg/mL | 3.5 to 12.5 µg/mL (≈ 9.71 to 34.7 µM) | 3.5 to 12.5 µg/mL (≈ 9.71 to 34.7 µM) | 12.5 to 150 µg/mL (≈ 34.7 to 416 µM) | 12.5 to 150 µg/mL (≈ 34.7 to 416 µM) | 12.5 to 150 µg/mL (≈ 34.7 to 416 µM) | 12.5 to 150 µg/mL (≈ 34.7 to 416 µM) | < 1 µg/mL | < 1 µg/mL | < 1 µg/mL | 
CCc1cc(C(=O)O)c(=O)[nH]c1-c1ccc(N2CCC(N3CCOCC3)C2)cc1.O=C(O)C(F)(F)F (stereo not drawn) [Cpd 140, 5-ethyl-6-{4-[3-(morpholin-4-yl)pyrrolidin-1-yl]phenyl}-2-oxo-1,2-dihydropyridine-3-carboxylic acid trifluoroacetate] |  | 3.5 to 12.5 µg/mL | 12.5 to 150 µg/mL | 12.5 to 150 µg/mL | 12.5 to 150 µg/mL | 12.5 to 150 µg/mL | 12.5 to 150 µg/mL | < 1 µg/mL | < 1 µg/mL | < 1 µg/mL | < 1 µg/mL
CCc1cc(C(=O)O)c(=O)[nH]c1-c1ccc(N2CCC(OCc3ccccc3)C2)cc1 (stereo not drawn) [Cpd 128, 6-{4-[3-(benzyloxy)pyrrolidin-1-yl]phenyl}-5-ethyl-2-oxo-1,2-dihydropyridine-3-carboxylic acid] | < 1 µg/mL | 12.5 to 150 µg/mL (≈ 29.9 to 358 µM) | 1 to 3.5 µg/mL (≈ 2.39 to 8.36 µM) | 12.5 to 150 µg/mL (≈ 29.9 to 358 µM) | 12.5 to 150 µg/mL (≈ 29.9 to 358 µM) | 12.5 to 150 µg/mL (≈ 29.9 to 358 µM) | 12.5 to 150 µg/mL (≈ 29.9 to 358 µM) | 1 to 3.5 µg/mL (≈ 2.39 to 8.36 µM) | < 1 µg/mL | < 1 µg/mL | 
CCc1cc(C(=O)O)c(=O)[nH]c1-c1ccc(N2CCC(O)C2)cc1 (stereo not drawn) [Cpd 123, 5-ethyl-6-[4-(3-hydroxypyrrolidin-1-yl)phenyl]-2-oxo-1,2-dihydropyridine-3-carboxylic acid] | < 1 µg/mL | < 1 µg/mL | 3.5 to 12.5 µg/mL (≈ 10.7 to 38.1 µM) | 12.5 to 150 µg/mL (≈ 38.1 to 457 µM) | 12.5 to 150 µg/mL (≈ 38.1 to 457 µM) | 12.5 to 150 µg/mL (≈ 38.1 to 457 µM) | 3.5 to 12.5 µg/mL (≈ 10.7 to 38.1 µM) | < 1 µg/mL | < 1 µg/mL | < 1 µg/mL | 
CCc1cc(C(=O)O)c(=O)[nH]c1-c1ccc(N(C)CCO)cc1 [Cpd 17, 5-ethyl-6-{4-[(2-hydroxyethyl)(methyl)amino]phenyl}-2-oxo-1,2-dihydropyridine-3-carboxylic acid] | < 1 µg/mL | 3.5 to 12.5 µg/mL (≈ 11.1 to 39.5 µM) | 12.5 to 150 µg/mL (≈ 39.5 to 474 µM) | 12.5 to 150 µg/mL (≈ 39.5 to 474 µM) | 12.5 to 150 µg/mL (≈ 39.5 to 474 µM) | 12.5 to 150 µg/mL (≈ 39.5 to 474 µM) |  | < 1 µg/mL | < 1 µg/mL | < 1 µg/mL | 
CCc1cc(C(=O)O)c(=O)[nH]c1-c1ccc(N2C[C@@H](N)[C@H](OC)C2)cc1.Cl [Cpd 134, 6-{4-[(3R,4R)-3-amino-4-methoxypyrrolidin-1-yl]phenyl}-5-ethyl-2-oxo-1,2-dihydropyridine-3-carboxylic acid hydrochloride] | < 1 µg/mL | 3.5 to 12.5 µg/mL | 12.5 to 150 µg/mL | 12.5 to 150 µg/mL | 12.5 to 150 µg/mL | 12.5 to 150 µg/mL |  | < 1 µg/mL | 3.5 to 12.5 µg/mL | < 1 µg/mL | 
